Numbered stars: 1 amine (or outer) side, 2 acyl side, 3 side chain; on linkers, the order of the positions; unused ones are H or OH. Square brackets hold non-standard residues; d marks the D form. Peptide text beside a SMILES is read from it. * marks the point of attachment. X2 = O=C1CN2CCN(CCN(CC3CCN(CC(=O)*)CC3)CC2)CC(=O)[O][Al]([F])[O]1; NOTA(AlF) = O=C1CN2CCN(CCN(CC(=O)*)CC2)CC(=O)[O][Al]([F])[O]1; Haic = O=C1[C@@H](N[*:1])CCc2cccc3c2N1[C@H](C(=O)[*:2])C3; NH(5-HO-2-oxo-oxolan-4-yl) = O=C1CC(N*)C(O)O1; X1 = O=C(CN1CCN([*:1])CC1)[*:2]
How the values were obtained:
[1] = target: T1, granzyme B (Human lymphocytes) (Homo sapiens, UniProt P10144); experiment: In vivo PET/CT imaging of ^18F-granzyme B tracers in a Matrigel mouse model of active and pro-form granzyme B; conditions: female nude athymic mice with granzyme B/Matrigel implants, iv ^18F-radiotracer, PET 75-minutes post-injection
T1 construct: Matrigel Mouse Model of Active and Pro-Form Granzyme B; purchased Enzo Life Sciences; host or cells: human lymphocytes
Procedure: Female nude athymic (5-6 weeks, 15-30 g) mice were purchased from Jackson Laboratories. Both granzyme B (Human lymphocytes, Enzo Life Sciences) and inactivated human pro-form granzyme B (R&D Systems) were also commercially purchased. […] Each granzyme B enzyme was then brought up to a final concentration of 0.05 μg/ul using phosphate buffered saline (GE, Hyclone). Matrigel (65 μl, Corning) was mixed with 15 μl of 0.75 μg of each granzyme B enzyme (granzyme B and pro-form granzyme B) within each Eppendorf tube. The mice were then anesthetized with 2.5-3% isoflurane mixed with oxygen. Approximately 60-80 μl of granzyme B/Matrigel or the pro-form granzyme B/Matrigel were then injected using a 28-gauge X 0.5-inch insulin syringe (Terumo) to form implants on the right and left shoulder flanks of the mice. Approximately five minutes later, the mice were administered the ^18F-radiotracer via a bolus intravenous injection (approximately 150 μCi in a total volume of 100 ul saline plus an additional ˜25 ul saline to flush the catheter line). After the radiotracer injection, the catheter was removed and measured for any remaining residual radioactivity. The mice were then placed back in their cage for recovery. A nanoScan® PET/CT (Mediso, Hungary) was used for micro-PET/CT imaging in which 15-minute static PET scans were conducted 75-minutes post-injection of the radiotracer. Tera-Tomo™ 3D PET iterative reconstruction along with scatter correction were then conducted post-acquisition. A short high-resolution computed tomography (CT) scan was also performed immediately after to allow for anatomical registration. PET signal in the granzyme B implants were quantified by manually drawing regions of interest (ROIs) over the Matrigel implants based on the fused PET/CT images and the corresponding activity values were determined with VivoQuant (Invicro, Massachusetts). All values were represented as % injected dose per gram (% ID/g). Target to background ratios (TBR's) were then calculated by dividing the granzyme B % ID/g value by the pro-form granzyme B % ID/g value. PET imaging timepoints and granzyme B concentrations used in these experiments were determined in previous studies (data not shown).

[2] = Radioactive metabolite screening in male CD-1 mouse urine by radiometric HPLC; type: in vivo, male CD-1 mice; conditions: for 60 minutes (% parent in urine): male CD-1 mouse urine, 60 minutes post tail vein injection, n=3; for radiometabolites in urine: mice, urine at 60 min post dose
Procedure: Radioactive metabolite screening studies were performed by injection of [18F] granzyme B tracers in male CD-1 mice followed by analysis of urine samples at 60 minutes by radiometric HPLC.
Briefly, male CD-1 mice were anesthetized prior to dosing with approximately 250 μCi [^18F] granzyme B tracer via tail vein injection (n=3 mice). Urine samples were collected at the 60 minutes post-injection following anesthesia and cervical dislocation. Samples were diluted 100-fold in water prior to injection by HPLC.
Diluted samples were then analyzed on an Agilent 1290 series UPLC UV coupled with a BGO coincidence detector. The HPLC method utilized either 1) Phenomenex Kinetex EVO C18 (150×2.1 mm, 1.7 micron); 100 μL injection volume; flow-rate: 0.5 mL/min; solvent for A: 0.1% formic acid in water; solvent for B: 100% acetonitrile; gradient: initial hold at 5% B hold for 1 min, 5% to 40% in 7 min, hold 40% B for 2 min, increase from 40% to 95% B in 1 min, hold 95% B for 2 min, and then return to 5% B to reequilibrate, or 2) Phenomenex Monolithic C18 (100×4.6 mm); 100 μL injection volume; flow-rate: 1.2 mL/min; solvent for A: 20 mM ammonium acetate in water; solvent for B: 100% methanol; gradient: same as above.

T1 sequence (P10144 21-247): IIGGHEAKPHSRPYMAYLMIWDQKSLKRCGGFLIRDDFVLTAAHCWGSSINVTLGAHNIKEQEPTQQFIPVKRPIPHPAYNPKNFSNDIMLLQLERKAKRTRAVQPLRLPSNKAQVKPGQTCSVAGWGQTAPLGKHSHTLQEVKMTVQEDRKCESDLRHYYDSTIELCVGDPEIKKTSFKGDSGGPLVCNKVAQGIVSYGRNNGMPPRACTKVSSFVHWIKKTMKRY

| Compound | in vivo imaging activity [1] | 60 minutes (% parent in urine) [2] [%] | radiometabolites in urine [2] |
| --- | --- | --- | --- |
| CC[C@H](C)[C@H](NC(=O)CNC(=O)CNC(=O)[C@H](CCC(=O)O)NC(=O)CN1CCN(C(=O)CN2CCN3CCN(CC2)CC(=O)[O][Al]([F])[O]C(=O)C3)CC1)C(=O)N[C@H]1CCc2cccc3c2N(C1=O)[C@H](C(=O)NC1CC(=O)OC1O)C3 (stereo partly shown) [18F-8-Al] ({NOTA(AlF)}-[X1]EGGI[Haic]-{NH(5-HO-2-oxo-oxolan-4-yl)}) | good imaging activity | – | – |
| CC[C@H](C)[C@H](NC(=O)COCCNC(=O)[C@@H](CCC(=O)O)NC(=O)[C@@H](CCC(=O)O)NC(=O)CN1CCC(CN2CCN3CCN(CC2)CC(=O)[O][Al]([F])[O]C(=O)C3)CC1)C(=O)N[C@H]1CCc2cccc3c2N(C1=O)[C@H](C(=O)NC1CC(=O)OC1O)C3 (stereo partly shown) [Compound ^18F-4-Al] | good imaging activity | 100 | no radiometabolites were observed |
| CC[C@H](C)[C@H](NC(=O)CCNC(=O)CCNC(=O)[C@@H](CCC(=O)O)NC(=O)CN1CCC(CN2CCN3CCN(CC2)CC(=O)[O][Al]([F])[O]C(=O)C3)CC1)C(=O)N[C@H]1CCc2cccc3c2N(C1=O)[C@H](C(=O)NC1CC(=O)OC1O)C3 (stereo partly shown) [Compound ^18F-1-Al] | good imaging activity | 100 | no radiometabolites were observed |
| CC[C@H](C)[C@H](NC(=O)COCCNC(=O)[C@@H](CCC(=O)O)NC(=O)[C@@H](CCC(=O)O)NC(=O)CN1CCN(C(=O)CN2CCN3CCN(CC2)CC(=O)[O][Al]([F])[O]C(=O)C3)CC1)C(=O)N[C@H]1CCc2cccc3c2N(C1=O)[C@H](C(=O)NC1CC(=O)OC1O)C3 (stereo partly shown) [Compound ^18F-10-Al] | good imaging activity | – | – |
| CC[C@H](C)[C@H](NC(=O)CCNC(=O)CC[C@H](NC(=O)CN1CCC(CN2CCN3CCN(CC2)CC(=O)[O][Al]([F])[O]C(=O)C3)CC1)C(=O)O)C(=O)N[C@H]1CCc2cccc3c2N(C1=O)[C@H](C(=O)NC1CC(=O)OC1O)C3 (stereo partly shown) [18F-6-Al] | – | 66.3 | – |
| CC[C@H](C)[C@H](NC(=O)CCNC(=O)CCNC(=O)CN(CC(=O)O)C(=O)CN1CCC(CN2CCN3CCN(CC2)CC(=O)[O][Al]([F])[O]C(=O)C3)CC1)C(=O)N[C@H]1CCc2cccc3c2N(C1=O)[C@H](C(=O)NC1CC(=O)OC1O)C3 (stereo partly shown) [18F-5-Al] | – | 100 | – |
| CC[C@H](C)[C@H](NC(=O)CCNC(=O)CCNC(=O)CN(CC(=O)O)C(=O)CN1CCN(C(=O)CN2CCN3CCN(CC2)CC(=O)[O][Al]([F])[O]C(=O)C3)CC1)C(=O)N[C@H]1CCc2cccc3c2N(C1=O)[C@H](C(=O)NC1CC(=O)OC1O)C3 (stereo partly shown) [Compound ^18F-13-Al] | good imaging activity | – | – |
| CC[C@H](C)[C@H](NC(=O)CCNC(=O)CCNC(=O)[C@@H](CCC(=O)O)NC(=O)CN1CCN(C(=O)CN2CCN3CCN(CC2)CC(=O)[O][Al]([F])[O]C(=O)C3)CC1)C(=O)N[C@H]1CCc2cccc3c2N(C1=O)[C@H](C(=O)NC1CC(=O)OC1O)C3 (stereo partly shown) [Compound ^18F-12-Al] | good imaging activity | – | – |
| CC[C@H](C)[C@H](NC(=O)CCNC(=O)CN(CC(=O)O)C(=O)CCNC(=O)CN1CCC(CN2CCN3CCN(CC2)CC(=O)[O][Al]([F])[O]C(=O)C3)CC1)C(=O)N[C@H]1CCc2cccc3c2N(C1=O)[C@H](C(=O)NC1CC(=O)OC1O)C3 (stereo partly shown) [Compound ^18F-3-Al] | good imaging activity | 100 | no radiometabolites were observed |
| CC[C@H](C)[C@H](NC(=O)CNC(=O)CNC(=O)[C@H](CCC(=O)O)NC(=O)CN1CCC(CN2CCN3CCN(CC2)CC(=O)[O][Al]([F])[O]C(=O)C3)CC1)C(=O)N[C@H]1CCc2cccc3c2N(C1=O)[C@H](C(=O)NC1CC(=O)OC1O)C3 (stereo partly shown) [18F-2-Al] (X2-EGGI[Haic]-{NH(5-HO-2-oxo-oxolan-4-yl)}) | good imaging activity | – | – |
